For assay [1], the system named is Caspase 8, 9 and 3/7 in MiaPaca2 cells. Put plainly: Caspase activity in MiaPaca2 cells. It is filed as cell-based, human. Here is the method:
From previous studies was determined that CB-03-10 induces apoptosis using Annexin V staining in MiaPaca2 cells. To better analyze the phenomenon the enzymatic activity of Caspase 8 (initiator caspase for Extrinsic Pathway) and Caspase 9 (initiator caspase for Intrinsic Pathway) and of Caspases 3 and 7 (effector caspases) were measured.
After 24 hours test compounds were added to cells, Gemcitabine (a known pancreatic cancer chemotherapeutic agent) and DMSO were used as positive and negative control, respectively. After 8, 24, & 48 hours incubation with test compounds, cells were lysed in buffer containing the caspase 3/7 or 8 or 9 substrate and a stable luciferase in proprietary buffers. The lysates were transferred to white opaque plates before measuring luminescence in a Tecan Safire instrument. Parallel plates treated identically, were used to determine viable cells. All caspase activities were corrected for the number of viable cells.

Assay [2] has as its system 22Rv1 prostate cancer cells. Put plainly: In vitro proliferation, 22Rv1. In kind it is cell-based. To be noted: Homo sapiens, Table III, read-out: in vitro proliferation IC50 (μ/M). Here is the method:
Each compounds was titrated from 3 uM to 200 uM.

The values that follow come from patent US10183030B2, “17α,21-diesters of cortexolone for use in the treatment of tumors” (COSMO TECHNOLOGIES LTD., priority 2014, dated 2019).

The structures appear in SMILES notation. pIC50: −log10 of the molar value.

For the compound `CCCCC(=O)O[C@]1(C(=O)COC(=O)CC)CC[C@H]2[C@@H]3CCC4=CC(=O)CC[C@]4(C)[C@H]3CC[C@@]21C` [CB-03-10, cortexolone 17α-valerate-21-propionate], in assay [1] (8, 24, 48 hours), the “Caspase 3/7 induction” value is “already at 8 hours at and a really high level after 48 hours incubation”. Also, in assay [1] (20 or 50 μM, 8, 24, 48 hours, corrected for viable cells), the “increase in Caspase 8 and 9 activity compared to control” value was at most 7 fold. Besides, in assay [2], the pIC50 was 4.74.
